Assay results reported in patent EP1981504B1, “THIADIAZOLE DERIVATIVES FOR THE TREATMENT OF NEURO DEGENERATIVE DISEASES” (NV reMYND, priority 2006, dated 2007).
In brackets after ≈: the same amount, converted by molar mass.

Tested on: M17-SYNwt cells
Assay: α-synuclein cytotoxicity assay (LDH leakage from paraquat-treated α-synuclein over-expressing neuroblastoma cells)
Type: cell-based, human
Conditions: paraquat 32 mM, 40 hours, LDH release; for EC50: Homo sapiens, Neuroblastoma cell, 10 point curves in duplicate; for %I: percent inhibition of synuclein cytotoxicity at most effective concentration of test compound, relative to untreated paraquat cells
Procedure: Subsequently, LDH activity was determined using Promega Cytotox 96 NonRadioactive cytotoxicity assay, (Cat. G1780) according the supplier's instructions.
This corresponds to the following equation: (LDHreleaseoftreatedparaquatcellsatnon-effectiveconcentrationoftestcmpd)−(LDHreleaseoftreatedparaquatcellsatmosteffectiveconcentrationoftestcmpd)/(LDHreleaseofuntreatedparaquatcells)−(LDHreleasecontrolcells)*100% [formula]
1,2,4-thiadazole compounds made according to the methods described herein were screened for activity using the α-synuclein cytotoxicity assay as described above. Dose responses were carried out on all compounds found to be active (10 point curves in duplicate).

Compound: O=S(=O)(c1ccc2ccccc2c1)N1CCN(c2nc(Cc3ccc(Cl)cc3)ns2)CC1 [Compound 52, 1-[2-naphtylsulfonyl]-4-[3-(4-chlorobenzyl)-1,2,4-thiadiazol-5-yl]piperazine]
- EC50: 0.1 µg/mL (≈ 0.206 µM)
- %I: 104%

Compound: CC1CN(c2nc(Cc3ccc(F)cc3)ns2)CCN1S(=O)(=O)c1ccc(C(C)(C)C)cc1 (stereo not drawn) [Compound 54, 1-[4-tert-butylphenylsulfonyl]-4-[3-(4-fluorobenzyl)-1,2,4-thiadiazol-5-yl]-2-methylpiperazine]
- %I: 60%

Compound: CC(=O)Nc1ccc(S(=O)(=O)N2CCN(c3nc(Cc4ccc(F)cc4)ns3)CC2C)cc1 (stereo not drawn) [Compound 55, 1-[4-acetamidophenylsulfonyl]-4-[3-(4-fluorobenzyl)-1,2,4-thiadiazol-5-yl]-2-methylpiperazine]
- EC50: 0.0781 µg/mL (≈ 0.16 µM)
- %I: 114%

Compound: Cc1ccc(Cc2nsc(N3CCN(S(=O)(=O)c4cccc(C(F)(F)F)c4)C(C)C3)n2)cc1 (stereo not drawn) [Compound 56, 1-[3-trifluoromethylphenylsulfonyl]-4-[3-(4-methylbenzyl)-1,2,4-thiadiazol-5-yl]-2-methylpiperazine]
- %I: 87%

Compound: Cc1ccc(Cc2nsc(N3CCN(S(=O)(=O)c4ccc(F)cc4)CC3)n2)cc1 [Compound 57, 1-[4-fluorophenylsulfonyl]-4-[3-(4-methylbenzyl)-1,2,4-thiadiazol-5-yl]piperazine]
- EC50: 0.0104 µg/mL (≈ 0.024 µM)
- %I: 88%

Compound: Cc1ccc(Cc2nsc(N3CCN(S(=O)(=O)c4ccc(F)cc4)C(C)C3)n2)cc1 (stereo not drawn) [Compound 58, 1-[4-fluorophenylsulfonyl]-4-[3-(4-methylbenzyl)-1,2,4-thiadiazol-5-yl]-2-methylpiperazine]
- EC50: 0.061 µg/mL (≈ 0.137 µM)
- %I: 58%

Compound: CC1CN(c2nc(Cc3ccc(F)cc3)ns2)CCN1S(=O)(=O)c1ccc(F)cc1 (stereo not drawn) [Compound 59, 1-[4-fluorophenylsulfonyl]-4-[3-(4-fluorobenzyl)-1,2,4-thiadiazol-5-yl]-2-methylpiperazine]
- %I: 42%

Compound: COc1ccc(S(=O)(=O)N2CCN(c3nc(Cc4ccc(C)cc4)ns3)CC2C)cc1 (stereo not drawn) [Compound 60, 1-[4-methoxyphenylsulfonyl]-4-[3-(4-methylbenzyl)-1,2,4-thiadiazol-5-yl]-2-methylpiperazine]
- EC50: 0.0013 µg/mL (≈ 0.00283 µM)
- %I: 93%

Compound: CC(C)(C)c1ccc(S(=O)(=O)N2CCN(c3nc(Cc4ccc(F)cc4)ns3)CC2)cc1 [Compound 61, 1-[4-ter-butylphenylsulfonyl]-4-[3-(4-fluorobenzyl)-1,2,4-thiadiazol-5-yl]piperazine]
- %I: 47%

Compound: Cc1ccc(Cc2nsc(N3CCN(S(=O)(=O)c4cccc(C(F)(F)F)c4)CC3)n2)cc1 [Compound 62, 1-[3-trifluoromethylphenylsulfonyl]-4-[3-(4-methylbenzyl)-1,2,4-thiadiazol-5-yl]piperazine]
- %I: 45%

Compound: Cc1ccc(S(=O)(=O)N2CCN(c3nc(Cc4ccc(Cl)cc4)ns3)CC2)cc1 [Compound 63, 1-[4-methylphenylsulfonyl]-4-[3-(4-chlorobenzyl)-1,2,4-thiadiazol-5-yl]piperazine]
- EC50: 0.0807 µg/mL (≈ 0.18 µM)
- %I: 83%

Compound: Cc1ccc(Cc2nsc(N3CCN(S(=O)(=O)c4ccc(Br)cc4)CC3)n2)cc1 [Compound 64, 1-[4-bromophenylsulfonyl]-4-[3-(4-methylbenzyl)-1,2,4-thiadiazol-5-yl]piperazine]
- %I: 58%

Compound: Cc1ccc(Cc2nsc(N3CCN(S(=O)(=O)c4ccc5ccccc5c4)CC3)n2)cc1 [Compound 65, 1-[2-naphtylsulfonyl]-4-[3-(4-methylbenzyl)-1,2,4-thiadiazol-5-yl]piperazine]
- EC50: 0.0393 µg/mL (≈ 0.0845 µM)
- %I: 78%

Compound: Cc1ccc(Cc2nsc(N3CCN(S(=O)(=O)c4ccc(Cl)cc4)CC3)n2)cc1 [Compound 66, 1-[4-chlorophenylsulfonyl]-4-[3-(4-methylbenzyl)-1,2,4-thiadiazol-5-yl]piperazine]
- %I: 81%

Compound: Cc1ccc(Cc2nsc(N3CCN(S(=O)(=O)c4ccc(C(C)(C)C)cc4)CC3)n2)cc1 [Compound 67, 1-[4-tert-butylphenylsulfonyl]-4-[3-(4-methylbenzyl)-1,2,4-thiadiazol-5-yl]piperazine]
- %I: 41%

Compound: COc1ccc(S(=O)(=O)N2CCN(c3nc(Cc4ccc(C)cc4)ns3)CC2)cc1 [Compound 68, 1-[4-methoxyphenylsulfonyl]-4-[3-(4-methylbenzyl)-1,2,4-thiadiazol-5-yl]piperazine]
- EC50: 0.000255 µg/mL (≈ 0.000574 µM)
- %I: 53%

Compound: CC(C)(C)c1ccc(S(=O)(=O)N2CCN(c3nc(Cc4ccc(Cl)cc4)ns3)CC2)cc1 [Compound 69, 1-[4-tert-butylphenylsulfonyl]-4-[3-(4-chlorobenzyl)-1,2,4-thiadiazol-5-yl]piperazine]
- %I: 31%

Compound: Cc1ccc(Cc2nsc(N3CCN(S(=O)(=O)c4cccc5cccnc45)CC3)n2)cc1 [Compound 70, 1-[quinoline-8-sulfonyl]-4-[3-(4-methylbenzyl)-1,2,4-thiadiazol-5-yl]piperazine]
- %I: 44%

Compound: Cc1ccc(Cc2nsc(N3CCN(S(=O)(=O)c4ccc([N+](=O)[O-])cc4)C(C)C3)n2)cc1 (stereo not drawn) [Compound 71, 1-[4-nitrophenylsulfonyl]-4-[3-(4-methylbenzyl)-1,2,4-thiadiazol-5-yl]-2-methylpiperazine]
- %I: 33%

Compound: CC1CN(c2nc(Cc3ccc(F)cc3)ns2)CCN1S(=O)(=O)c1ccc([N+](=O)[O-])cc1 (stereo not drawn) [Compound 73, 1-[4-nitrophenylsulfonyl]-4-[3-(4-fluorobenzyl)-1,2,4-thiadiazol-5-yl]-2-methylpiperazine]
- %I: 33%

Compound: O=S(=O)(Cc1ccccc1)N1CCN(c2nc(Cc3ccc(Cl)cc3)ns2)CC1 [Compound 76, 1-(benzylsulfonyl)-4-[3-(4-chlorobenzyl)-1,2,4-thiadiazol-5-yl]piperazine]
- %I: 40%

Compound: Cc1ccc(Cc2nsc(N3CCN(S(=O)(=O)Cc4ccccc4)CC3)n2)cc1 [Compound 77, 1-(benzylsulfonyl)-4-[3-(4-methylbenzyl)-1,2,4-thiadiazol-5-yl]piperazine]
- %I: 81%

Compound: CCCCS(=O)(=O)N1CCN(c2nc(Cc3ccc(Cl)cc3)ns2)CC1 [Compound 81, 1-(butylsulfonyl)-4-[3-(4-chlorobenzyl)-1,2,4-thiadiazol-5-yl]piperazine]
- EC50: 0.35 µg/mL (≈ 0.843 µM)
- %I: 80%

Compound: CCCCCCCCS(=O)(=O)N1CCN(c2nc(Cc3ccc(C)cc3)ns2)CC1 [Compound 82, 1-(octylsulfonyl)-4-[3-(4-methylbenzyl)-1,2,4-thiadiazol-5-yl]piperazine]
- EC50: 1.58 µg/mL (≈ 3.51 µM)
- %I: 50%

Compound: CCCCS(=O)(=O)N1CCN(c2nc(Cc3ccc(C)cc3)ns2)CC1 [Compound 83, 1-(butylsulfonyl)-4-[3-(4-methylbenzyl)-1,2,4-thiadiazol-5-yl]piperazine]
- EC50: 2.64 µg/mL (≈ 6.69 µM)
- %I: 36%
